Bounds are passed on as bounds.

Here are results for 16 compounds from US9938261B2, “Heterocyclic compounds and methods of use thereof” (AMBIT BIOSCIENCES CORPORATION, priority 2011, dated 2018).

One assay addresses T1, KIT (Homo sapiens, UniProt P10721).
T1 construct: made in house
Kind of assay: Competition binding assay, KIT Kd. The procedure, abridged: (§1)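 Phage-fused or HEK-293/DNA-tagged kinase + ligand-coated streptavidin beads + compound, 1 h RT with shaking. Wash, elute with free ligand 30 min RT, qPCR of eluted kinase. Kd: 11-point 3-fold series.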

Another assay addresses T2, PDGFRβ (Homo sapiens, UniProt P09619).
T2 construct: made in house
Kind of assay: Competition binding assay, PDGFRβ Kd. The procedure, abridged: as §1

For the next assay, the system named is M-NFS-60 cells. Description: M-NFS-60 cell proliferation assay (Alamar Blue). Type of assay: cell-based, mouse. The following applies: Mus musculus; 72 hours incubation, M-CSF 20 ng/mL; read-out: CSF1R M-NFS-60 CTB:IC50. In short, it runs like this: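 Mouse M-NFS-60 cells growing on 20 ng/mL M-CSF in RPMI/10% FBS were exposed to compounds (9 half-log concentrations, 0.5% DMSO) for 72 h at 37 °C. Viability read by Alamar Blue fluorescence (ex 560/em 590 nm, 3 h). IC50 = 50% proliferation inhibition versus control, mean of duplicates.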

In assay [1] the target is kinase panel containing either 386 or 392 distinct kinases. Kind of assay: Kinase selectivity score S10 from competition binding panel. The following applies: compounds at 10 μM; 386 or 392 distinct kinases. Here is the method: Competition binding assays used herein were developed, validated and performed as described in Fabian et al., Nature Biotechnology 2005, 23, 329-336. Kinases were produced as fusions to T7 phage (See, Fabian et al. or WO04/015142) or alternatively, the kinases were expressed in HEK-293 cells and subsequently tagged with DNA for PCR detection (See, WO08/005310). For the binding assays, streptavidin-coated magnetic beads were treated with biotinylated affinity ligands for 30 min at room temperature to generate affinity resins. The liganded beads were blocked with excess biotin and washed with blocking buffer (SeaBlock (Pierce), 1% BSA, 0.05% Tween 20, 1 mM DTT) to remove unbound ligand and to reduce non-specific binding. Binding reactions were assembled by combining kinase, liganded affinity beads, and test compounds in 1× binding buffer (20% SeaBlock, 0.17×PBS, 0.05% Tween 20, 6 mM DTT). Test compounds were prepared as 100× stocks in DMSO and diluted into the aqueous environment. Kds were determined using an eleven point threefold serial dilutions. DMSO or control compounds were was added to control assays lacking a test compound. Primary screen assays were performed in polypropylene 384-well plates in a final volume of 20-40 μL, while Kd determinations were performed in polystyrene 96-well plates in a final volume of 135 μL. The assay plates were incubated at room temperature with shaking for 1 hour to allow the binding reactions to reach equilibrium, and the affinity beads were washed extensively with wash buffer (1×PBS, 0.05% Tween 20) to remove unbound protein. The beads were then resuspended in elution buffer (1×PBS, 0.05% Tween […] non-biotinylated affinity ligand) and incubated at room temperature with shaking for 30 min. The kinase concentration in the eluates was measured by quantitative PCR.
A selectivity score (S10) is a quantitative measure of selectivity of a compound against a panel of kinases. An S10 was calculated for a compound by dividing the number of kinases found to have a percent of control (DMSO) less than 10 by the total number of distinct kinases tested (excluding mutant variants). Percent of control (POC) is calculated by subtracting the signal of the control compound (POC=0) from the signal of the test compound and dividing the outcome by the signal of DMSO (POC=100) minus the signal of the control compound. For the compounds disclosed herein, S10 scores were obtained by testing the compounds at 10 μM concentration in a kinase panel containing either 386 or 392 distinct kinases.

Another assay has as its target CSF1R (Homo sapiens, UniProt P07333). Kind of assay: Competition binding assay, CSF1R Kd. On the set-up: made in house. The procedure, abridged:
as §1

T1 sequence (P10721 26-976): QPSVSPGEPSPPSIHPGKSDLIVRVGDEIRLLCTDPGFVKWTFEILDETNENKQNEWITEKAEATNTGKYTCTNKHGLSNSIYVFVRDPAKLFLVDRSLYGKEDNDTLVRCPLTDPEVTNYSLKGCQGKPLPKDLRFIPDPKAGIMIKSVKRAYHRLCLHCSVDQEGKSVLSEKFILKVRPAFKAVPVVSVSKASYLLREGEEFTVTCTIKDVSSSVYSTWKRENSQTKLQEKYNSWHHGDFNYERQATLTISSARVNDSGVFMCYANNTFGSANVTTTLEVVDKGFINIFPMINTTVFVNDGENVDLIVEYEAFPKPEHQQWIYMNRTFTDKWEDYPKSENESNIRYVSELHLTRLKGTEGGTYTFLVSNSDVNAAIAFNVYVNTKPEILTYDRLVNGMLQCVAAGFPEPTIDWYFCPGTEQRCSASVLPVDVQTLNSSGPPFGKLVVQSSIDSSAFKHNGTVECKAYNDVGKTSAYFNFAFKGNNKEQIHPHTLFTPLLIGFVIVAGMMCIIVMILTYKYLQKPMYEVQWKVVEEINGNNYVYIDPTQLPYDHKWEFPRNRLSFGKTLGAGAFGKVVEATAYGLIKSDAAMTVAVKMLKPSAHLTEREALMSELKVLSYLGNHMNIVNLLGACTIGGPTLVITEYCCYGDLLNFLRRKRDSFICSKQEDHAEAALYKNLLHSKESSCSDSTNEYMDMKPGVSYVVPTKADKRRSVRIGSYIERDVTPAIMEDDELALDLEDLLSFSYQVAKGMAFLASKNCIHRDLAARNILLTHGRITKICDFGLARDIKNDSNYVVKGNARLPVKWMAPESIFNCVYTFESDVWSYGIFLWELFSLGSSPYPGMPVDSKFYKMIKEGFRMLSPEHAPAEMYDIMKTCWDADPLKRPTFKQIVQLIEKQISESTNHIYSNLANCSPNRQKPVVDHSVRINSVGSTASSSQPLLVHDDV
T2 sequence (P09619 33-1106): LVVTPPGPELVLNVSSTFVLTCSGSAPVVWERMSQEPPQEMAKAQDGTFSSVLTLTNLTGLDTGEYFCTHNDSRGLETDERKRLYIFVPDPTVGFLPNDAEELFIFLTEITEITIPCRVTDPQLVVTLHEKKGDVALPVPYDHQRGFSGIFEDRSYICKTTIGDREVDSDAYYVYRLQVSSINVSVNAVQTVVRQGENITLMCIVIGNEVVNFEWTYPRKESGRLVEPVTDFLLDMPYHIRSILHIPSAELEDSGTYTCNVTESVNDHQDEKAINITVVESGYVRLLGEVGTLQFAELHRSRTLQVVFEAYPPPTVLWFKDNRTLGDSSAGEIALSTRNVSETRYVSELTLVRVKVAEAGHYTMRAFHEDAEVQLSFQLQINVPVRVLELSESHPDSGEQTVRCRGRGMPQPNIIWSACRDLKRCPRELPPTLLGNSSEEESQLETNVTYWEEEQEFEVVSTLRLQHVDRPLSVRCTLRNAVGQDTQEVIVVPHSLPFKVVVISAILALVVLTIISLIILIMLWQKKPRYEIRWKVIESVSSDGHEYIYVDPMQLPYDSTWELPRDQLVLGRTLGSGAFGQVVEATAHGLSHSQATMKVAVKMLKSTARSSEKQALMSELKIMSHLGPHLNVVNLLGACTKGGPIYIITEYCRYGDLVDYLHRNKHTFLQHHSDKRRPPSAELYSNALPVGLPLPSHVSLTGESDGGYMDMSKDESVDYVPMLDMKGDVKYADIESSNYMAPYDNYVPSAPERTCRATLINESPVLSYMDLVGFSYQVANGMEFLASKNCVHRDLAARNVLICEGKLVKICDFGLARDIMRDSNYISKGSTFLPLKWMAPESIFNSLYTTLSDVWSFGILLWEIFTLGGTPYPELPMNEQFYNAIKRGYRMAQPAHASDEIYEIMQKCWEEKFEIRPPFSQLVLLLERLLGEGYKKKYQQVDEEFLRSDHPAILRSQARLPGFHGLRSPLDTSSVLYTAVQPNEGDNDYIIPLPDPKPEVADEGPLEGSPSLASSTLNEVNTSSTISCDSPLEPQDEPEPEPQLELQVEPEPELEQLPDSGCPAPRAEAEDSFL
Chain of CSF1R (P07333 20-972): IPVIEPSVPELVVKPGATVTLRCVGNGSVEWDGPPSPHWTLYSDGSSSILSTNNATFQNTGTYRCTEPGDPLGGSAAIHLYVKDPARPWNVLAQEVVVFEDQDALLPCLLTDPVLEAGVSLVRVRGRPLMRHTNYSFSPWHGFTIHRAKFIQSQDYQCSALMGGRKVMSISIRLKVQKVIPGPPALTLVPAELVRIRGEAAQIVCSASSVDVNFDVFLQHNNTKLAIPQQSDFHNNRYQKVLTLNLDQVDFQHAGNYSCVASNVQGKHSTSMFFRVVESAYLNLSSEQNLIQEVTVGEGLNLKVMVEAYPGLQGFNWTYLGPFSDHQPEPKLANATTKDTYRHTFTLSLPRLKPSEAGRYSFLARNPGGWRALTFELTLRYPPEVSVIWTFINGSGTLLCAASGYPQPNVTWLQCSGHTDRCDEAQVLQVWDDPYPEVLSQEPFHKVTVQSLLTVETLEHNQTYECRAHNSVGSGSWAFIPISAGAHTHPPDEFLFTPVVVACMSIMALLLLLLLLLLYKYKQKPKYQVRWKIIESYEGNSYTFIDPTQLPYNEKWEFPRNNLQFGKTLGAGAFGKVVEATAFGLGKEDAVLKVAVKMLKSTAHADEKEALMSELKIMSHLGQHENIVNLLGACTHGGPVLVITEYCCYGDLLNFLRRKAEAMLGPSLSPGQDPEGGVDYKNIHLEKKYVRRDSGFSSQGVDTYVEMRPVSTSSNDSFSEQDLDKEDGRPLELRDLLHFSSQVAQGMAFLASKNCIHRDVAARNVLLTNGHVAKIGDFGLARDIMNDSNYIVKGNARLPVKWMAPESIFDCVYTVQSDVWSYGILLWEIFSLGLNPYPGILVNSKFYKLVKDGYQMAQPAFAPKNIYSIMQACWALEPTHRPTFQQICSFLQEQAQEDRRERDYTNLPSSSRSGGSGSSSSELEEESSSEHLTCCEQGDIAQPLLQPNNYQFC

The Kd is the concentration at which binding is half-saturated. Higher therefore signals lower affinity. As usually defined, the IC50 is the concentration that inhibits the measured activity by half. Turning to `OC[C@@H]1CCCC[C@H]1Nc1nc2ccc(Cn3cnc4cccnc43)cc2s1` [Example 66, ((1R,2R)-2-((6-((3H-imidazo[4,5-b]pyridin-3-yl)methyl)benzo[d]thiazol-2-yl)amino)cyclohexyl)methanol], the results for the dissociation constant Kd at KIT, on PDGFRβ and at CSF1R were 500 to 2000 nM, 50 to 500 nM and 5 to 20 nM, respectively. Moreover, the IC50 in the assay on M-NFS-60 cells lay within 400 to 1500 nM. Further, the “Kinase specificity S(10)” value in assay [1] is on record as “A (A≤0.01)”.
In the case of `CC(=O)c1cnc2c(c1)ncn2Cc1ccc2nc(N[C@@H]3CCCC[C@H]3O)sc2c1` [Example 73, 1-(3-((2-(((1R,2R)-2-hydroxycyclohexyl)amino)benzo[d]thiazol-6-yl)methyl)-3H-imidazo[4,5-b]pyridin-6-yl)ethanone], the Kd at KIT is 100 to 500 nM; on PDGFRβ, at most 50 nM; on CSF1R, 5 to 20 nM. The concentration for half-maximal inhibition (IC50) in the assay on M-NFS-60 cells lay within 50 to 400 nM. The “Kinase specificity S(10)” value in assay [1] is given as “A (A≤0.01)”.
For `CS(=O)(=O)c1cnc2c(c1)ncn2Cc1ccc2nc(N[C@@H]3CCCC[C@H]3O)sc2c1` [Example 74, (1R,2R)-2-((6-((6-(methylsulfonyl)-3H-imidazo[4,5-b]pyridin-3-yl)methyl)benzo[d]thiazol-2-yl)amino)cyclohexanol], in that order: 100 to 500 nM, 50 to 500 nM, 5 to 20 nM, 50 to 400 nM and “B (0.01<B≤0.02)”.
For `OC1(CNc2nc3ccc(Cn4cnc5cccnc54)cc3s2)CCCCC1` [Example 75, 1-(((6-((3H-imidazo[4,5-b]pyridin-3-yl)methyl)benzo[d]thiazol-2-yl)amino)methyl)cyclohexanol], in that order: at most 100 nM, at most 50 nM, 5 to 20 nM, 50 to 400 nM and “C (C>0.02)”.
With `OCC1(CNc2nc3ccc(Cn4cnc5cccnc54)cc3s2)CCCCC1` [Example 76, (1-(((6-((3H-imidazo[4,5-b]pyridin-3-yl)methyl)benzo[d]thiazol-2-yl)amino)methyl)cyclohexyl)methanol], the Kd was at most 100 nM on KIT, at most 50 nM on PDGFRβ and at most 5 nM on CSF1R. In the assay with M-NFS-60 cells, the 50% inhibitory concentration (IC50) fell in the range of 50 to 400 nM. In assay [1], the “Kinase specificity S(10)” value was “C (C>0.02)”.
For `Cn1cc(-c2cn(Cc3ccc4nc(N[C@@H]5CCCC[C@H]5O)oc4c3)cn2)cn1` [Example 77, (1R,2R)-2-((6-((4-(1-methyl-1H-pyrazol-4-yl)-1H-imidazol-1-yl)methyl)benzo[d]oxazol-2-yl)amino)cyclohexanol], in that order: 500 to 2000 nM, 500 to 2000 nM, 5 to 20 nM, 400 to 1500 nM and “A (A≤0.01)”.
Consider `O[C@@H]1Cc2ccccc2[C@H]1Nc1nc2ccc(Cn3cnc4ccc(Br)nc43)cc2s1` [Example 80, (1R,2R)-1-((6-((5-bromo-3H-imidazo[4,5-b]pyridin-3-yl)methyl)benzo[d]thiazol-2-yl)amino)-2,3-dihydro-1H-inden-2-ol], for which the Kd on KIT is at most 100 nM; on PDGFRβ, at most 50 nM; on CSF1R it was 5 to 20 nM. Moreover, the IC50 in the assay with M-NFS-60 cells was at most 50 nM. Further, the “Kinase specificity S(10)” value in assay [1] was “B (0.01<B≤0.02)”.
Turning to `O=C(O)c1cnc2c(c1)ncn2Cc1ccc2nc(N[C@@H]3CCCC[C@H]3O)sc2c1` [Example 81, 3-((2-(((1R,2R)-2-hydroxycyclohexyl)amino)benzo[d]thiazol-6-yl)methyl)-3H-imidazo[4,5-b]pyridine-6-carboxylic acid], the equilibrium dissociation constant (Kd) is 100 to 500 nM at KIT, 50 to 500 nM on PDGFRβ and 20 to 50 nM at CSF1R. The half-maximal inhibitory concentration (IC50) in the assay with M-NFS-60 cells is above 1500 nM. In addition, the “Kinase specificity S(10)” value in assay [1] is reported as “B (0.01<B≤0.02)”.
For `O[C@@H]1CCCC[C@H]1Nc1nc2ccc(Cn3cnc4cc(CN5CCOCC5)cnc43)cc2s1` [Example 82, (1R,2R)-2-((6-((6-(morpholinomethyl)-3H-imidazo[4,5-b]pyridin-3-yl)methyl)benzo[d]thiazol-2-yl)amino)cyclohexanol], in that order: 500 to 2000 nM, 50 to 500 nM, 5 to 20 nM, 400 to 1500 nM and “A (A≤0.01)”.
For `OCc1cnc2c(c1)ncn2Cc1ccc2nc(N[C@@H]3CCCC[C@H]3O)sc2c1` [Example 84, (1R,2R)-2-((6-((6-(hydroxymethyl)-3H-imidazo[4,5-b]pyridin-3-yl)methyl)benzo[d]thiazol-2-yl)amino)cyclohexanol], in that order: 100 to 500 nM, 50 to 500 nM, 5 to 20 nM, 50 to 400 nM and “A (A≤0.01)”.
For `CSc1cnc2c(c1)ncn2Cc1ccc2nc(N[C@@H]3CCCC[C@H]3O)sc2c1` [Example 85, (1R,2R)-2-((6-((6-(methylthio)-3H-imidazo[4,5-b]pyridin-3-yl)methyl)benzo[d]thiazol-2-yl)amino)cyclohexanol], in that order: at most 100 nM, at most 50 nM, at most 5 nM, at most 50 nM and “B (0.01<B≤0.02)”.
Take `CSCc1cnc2c(c1)ncn2Cc1ccc2nc(N[C@@H]3CCCC[C@H]3O)sc2c1` [Example 86, (1R,2R)-2-((6-((6-((methylthio)methyl)-3H-imidazo[4,5-b]pyridin-3-yl)methyl)benzo[d]thiazol-2-yl)amino)cyclohexanol]: the dissociation constant (Kd) on KIT was at most 100 nM; at PDGFRβ it was at most 50 nM; on CSF1R, 5 to 20 nM. For the same compound, the half-maximal inhibitory concentration (IC50) with M-NFS-60 cells fell in the range of 50 to 400 nM. Also, the “Kinase specificity S(10)” value in assay [1] is “C (C>0.02)”.
For `N#Cc1ccc2ncn(Cc3ccc4nc(N[C@@H]5CCCC[C@H]5O)sc4c3)c2n1` [Example 87, 3-((2-(((1R,2R)-2-hydroxycyclohexyl)amino)benzo[d]thiazol-6-yl)methyl)-3H-imidazo[4,5-b]pyridine-5-carbonitrile], in that order: at most 100 nM, at most 50 nM, at most 5 nM, at most 50 nM and “B (0.01<B≤0.02)”.
For `C#Cc1cnc2c(c1)ncn2Cc1ccc2nc(N[C@@H]3CCCC[C@H]3O)sc2c1` [Example 96, (1R,2R)-2-((6-((6-ethynyl-3H-imidazo[4,5-b]pyridin-3-yl)methyl)benzo[d]thiazol-2-yl)amino)cyclohexanol], in that order: at most 100 nM, at most 50 nM, 5 to 20 nM, at most 50 nM and “C (C>0.02)”.
For `O[C@@H]1CCCC[C@H]1Nc1nc2ccc(Cn3cnc4cc(N5CCOCC5)cnc43)cc2s1` [Example 97, (1R,2R)-2-((6-((6-morpholino-3H-imidazo[4,5-b]pyridin-3-yl)methyl)benzo[d]thiazol-2-yl)amino)cyclohexanol], in that order: at most 100 nM, at most 50 nM, 5 to 20 nM, at most 50 nM and “B (0.01<B≤0.02)”.
As to `C=Cc1cnc2c(c1)ncn2Cc1ccc2nc(N[C@@H]3CCCC[C@H]3O)sc2c1` [Example 98, (1R,2R)-2-((6-((6-vinyl-3H-imidazo[4,5-b]pyridin-3-yl)methyl)benzo[d]thiazol-2-yl)amino)cyclohexanol], the Kd at KIT is at most 100 nM; at PDGFRβ it was at most 50 nM; at CSF1R, 5 to 20 nM. For the same compound, in the assay on M-NFS-60 cells, the concentration for half-maximal inhibition (IC50) was at most 50 nM. Also, the “Kinase specificity S(10)” value in assay [1] is reported as “B (0.01<B≤0.02)”.
